Assay: xn = mol fraction of the nth substance listed
Details: Liquid, Vibrating tube method

CCCCCCCCCC [decane] + CCCCCCC
Details | mass density [kg/m3]
323.15 K, 7000 kPa, x2 = 0.0531 | 711.49
323.15 K, 7000 kPa, x2 = 0.2594 | 703.89
323.15 K, 8000 kPa, x2 = 0.0531 | 712.35
323.15 K, 8000 kPa, x2 = 0.2594 | 704.79
323.15 K, 9000 kPa, x2 = 0.0531 | 713.2
323.15 K, 9000 kPa, x2 = 0.2594 | 705.68
323.15 K, 10000 kPa, x2 = 0.0531 | 714.07
323.15 K, 10000 kPa, x2 = 0.2594 | 706.56
323.15 K, 10990 kPa, x2 = 0.0531 | 714.9
323.15 K, 10990 kPa, x2 = 0.2594 | 707.43
323.15 K, 12000 kPa, x2 = 0.0531 | 715.73
323.15 K, 12000 kPa, x2 = 0.2594 | 708.29
323.15 K, 13000 kPa, x2 = 0.0531 | 716.54
323.15 K, 13000 kPa, x2 = 0.2594 | 709.14
323.15 K, 14000 kPa, x2 = 0.0531 | 717.35
323.15 K, 14000 kPa, x2 = 0.2594 | 709.98
323.15 K, 15000 kPa, x2 = 0.0531 | 718.14
323.15 K, 15000 kPa, x2 = 0.2594 | 710.81
323.15 K, 16000 kPa, x2 = 0.0531 | 718.92
323.15 K, 16000 kPa, x2 = 0.2594 | 711.62
323.15 K, 17000 kPa, x2 = 0.0531 | 719.7
323.15 K, 17000 kPa, x2 = 0.2594 | 712.43
323.15 K, 18000 kPa, x2 = 0.0531 | 720.46
323.15 K, 18000 kPa, x2 = 0.2594 | 713.25
323.15 K, 19000 kPa, x2 = 0.0531 | 721.21
323.15 K, 19000 kPa, x2 = 0.2594 | 714.01
323.15 K, 20000 kPa, x2 = 0.0531 | 721.96
323.15 K, 20000 kPa, x2 = 0.2594 | 714.78
323.15 K, 21000 kPa, x2 = 0.0531 | 722.7
323.15 K, 21000 kPa, x2 = 0.2594 | 715.55
323.15 K, 22000 kPa, x2 = 0.0531 | 723.41
323.15 K, 22000 kPa, x2 = 0.2594 | 716.3
323.15 K, 23000 kPa, x2 = 0.0531 | 724.12
323.15 K, 23000 kPa, x2 = 0.2594 | 716.98
323.15 K, 24000 kPa, x2 = 0.0531 | 724.82
323.15 K, 24000 kPa, x2 = 0.2594 | 717.65
323.15 K, 25000 kPa, x2 = 0.0531 | 725.51
323.15 K, 25000 kPa, x2 = 0.2594 | 718.3
323.16 K, 1000 kPa, x2 = 0.777 | 673.59
323.16 K, 2000 kPa, x2 = 0.777 | 674.58
323.16 K, 3000 kPa, x2 = 0.777 | 675.56
323.16 K, 4000 kPa, x2 = 0.777 | 676.57
323.16 K, 5000 kPa, x2 = 0.777 | 677.56
323.16 K, 6000 kPa, x2 = 0.777 | 678.57
323.16 K, 7000 kPa, x2 = 0.777 | 679.58
323.16 K, 8000 kPa, x2 = 0.777 | 680.57
323.16 K, 9000 kPa, x2 = 0.777 | 681.56
323.16 K, 10000 kPa, x2 = 0.777 | 682.54
323.16 K, 10990 kPa, x2 = 0.777 | 683.5
323.16 K, 12000 kPa, x2 = 0.777 | 684.45
323.16 K, 13000 kPa, x2 = 0.777 | 685.39
323.16 K, 14000 kPa, x2 = 0.777 | 686.31
323.16 K, 15000 kPa, x2 = 0.777 | 687.21
323.16 K, 16000 kPa, x2 = 0.777 | 688.1
323.16 K, 17000 kPa, x2 = 0.777 | 688.99
323.16 K, 18000 kPa, x2 = 0.777 | 689.87
323.16 K, 19000 kPa, x2 = 0.777 | 690.73
323.16 K, 20000 kPa, x2 = 0.777 | 691.58
323.16 K, 21000 kPa, x2 = 0.777 | 692.41
323.16 K, 22000 kPa, x2 = 0.777 | 693.22
323.16 K, 23000 kPa, x2 = 0.777 | 693.96
323.16 K, 24000 kPa, x2 = 0.777 | 694.7
323.16 K, 25000 kPa, x2 = 0.777 | 695.42
333.11 K, 1000 kPa, x2 = 0.5219 | 679.05
333.11 K, 2000 kPa, x2 = 0.5219 | 680.06
333.11 K, 3000 kPa, x2 = 0.5219 | 681.02
333.11 K, 4000 kPa, x2 = 0.5219 | 682.02
333.11 K, 5000 kPa, x2 = 0.5219 | 683.02
333.11 K, 6000 kPa, x2 = 0.5219 | 684.02
333.11 K, 7000 kPa, x2 = 0.5219 | 685.02
333.11 K, 8000 kPa, x2 = 0.5219 | 686.03
333.11 K, 9000 kPa, x2 = 0.5219 | 687.04
333.11 K, 10000 kPa, x2 = 0.5219 | 688.03
333.11 K, 10990 kPa, x2 = 0.5219 | 689.01
333.11 K, 12000 kPa, x2 = 0.5219 | 689.97
333.11 K, 13000 kPa, x2 = 0.5219 | 690.92
333.11 K, 14000 kPa, x2 = 0.5219 | 691.85
333.11 K, 15000 kPa, x2 = 0.5219 | 692.77
333.11 K, 16000 kPa, x2 = 0.5219 | 693.68
333.11 K, 17000 kPa, x2 = 0.5219 | 694.58
333.11 K, 18000 kPa, x2 = 0.5219 | 695.49
333.11 K, 19000 kPa, x2 = 0.5219 | 696.33
333.11 K, 20000 kPa, x2 = 0.5219 | 697.15
333.11 K, 21000 kPa, x2 = 0.5219 | 697.97
333.11 K, 22000 kPa, x2 = 0.5219 | 698.76
333.11 K, 23000 kPa, x2 = 0.5219 | 699.54
333.11 K, 24000 kPa, x2 = 0.5219 | 700.3
333.11 K, 25000 kPa, x2 = 0.5219 | 701.04
333.12 K, 1000 kPa, x2 = 0.0531 | 698.2
333.12 K, 1000 kPa, x2 = 0.777 | 665.15
333.12 K, 2000 kPa, x2 = 0.0531 | 699.22
333.12 K, 2000 kPa, x2 = 0.777 | 666.23
333.12 K, 3000 kPa, x2 = 0.0531 | 700.22
333.12 K, 3000 kPa, x2 = 0.777 | 667.33

Reference: the NIST ThermoML archive (doi:10.1016/j.jct.2011.08.016)
